Among the data in ChEMBL document CHEMBL4316582, “Nitro-Group-Containing Drugs” (J Med Chem, 2019) are MIC values, retold here.

In brackets after ≈: the same amount, converted by molar mass.

In this experiment the test system is Mycobacterium tuberculosis. In words: Antitubercular activity against multidrug-resistant Mycobacterium tuberculosis. It counts as functional.
With `O=[N+]([O-])C1CN2C[C@H](OCc3ccc(OC(F)(F)F)cc3)COC2=N1` (stereo partly drawn), the MIC was in the range of 0.039 to 0.531 µg/mL (≈ 0.108 to 1.47 µM).

With `[O-]/[N+](O)=C1/CN2C[C@H](OCc3ccc(OC(F)(F)F)cc3)COC2=N1`, the MIC lay in the range of 0.039 to 0.531 µg/mL (≈ 0.108 to 1.47 µM).

`FC(F)(F)Oc1ccc(CO[C@@H]2COc3nccn3C2)cc1`: the MIC was 0.039 to 0.531 µg/mL (≈ 0.124 to 1.69 µM).
